Test results from patent US20230079045A1 (priority 2019, published 2023).
Read-outs that look alike come from different tables or passages of the source.

Tested on: IFV A/PR/8/34
Experiment: cytopathic effect (CPE) antiviral test in MDCK cells, IFV A/PR/8/34
Format: cell-based, influenza virus
Settings: read-out: EC50(IFV A/PR/8/34)
[1] = unidentified influenza virus, PR/8, MDCK, 120 h

SMILES | EC50 [1] [nM] | EC50 (MDCK cells, CPE method, CCK-8 cell viability, 5 days) [nM]
[2H]C([2H])([2H])C(C(=O)Nc1ccc2oc(-c3ccnc(C(=O)N4CCC(C(c5ccccc5)n5nnc(C)n5)CC4)c3)nc2c1)C([2H])([2H])[2H] (racemic) [Compound 132, 3,3,3-trideuterio-N-[2-[2-[4-[(R/S)-(5-methyltetrazol-2-yl)-phenyl-methyl]piperidine-1-carbonyl]-4-pyridyl]-1,3-benzoxazol-5-yl]-2-(trideuteriomethyl)propanamide] | 4 | 
Cc1nnn(C(c2ccccc2)C2CCN(C(=O)c3cc(-c4nc5cc(-c6cnn(C)c6)ccc5o4)ccn3)CC2)n1 (racemic) [Compound 133, (R/S)-(4-(5-(1-methyl-1H-pyrazol-4-yl)benzo[d]oxazol-2-yl)pyridin-2-yl)(4-((5-methyl-2H-tetrazol-2-yl)(phenyl)methyl)piperidin-1-yl)methanone] | 33 | 
Cc1nnn(C(c2ccccc2)C2CCN(C(=O)c3cc(-c4nc5cc(NC(=O)C(C)(C)F)ccc5o4)ccn3)CC2)n1 (racemic) [Compound 135, (R/S)-2-fluoro-2-methyl-N-(2-(2-(4-((5-methyl-2H-tetrazol-2-yl)(phenyl)methyl)piperidine-1-carbonyl)pyridin-4-yl)benzo[d]oxazol-5-yl)propanamide] | 23 | 
[2H]C([2H])([2H])C(C(=O)Nc1ccc2oc(-c3ccnc(C(=O)N4CCC(C(c5ccccc5)n5nnc(C)n5)CC4)c3)cc2c1)C([2H])([2H])[2H] (racemic) [Compound 137, 3,3,3-trideuterio-N-[2-[2-[4-[(R/S)-(5-methyltetrazol-2-yl)-phenyl-methyl]piperidine-1-carbonyl]-4-pyridyl]benzofuran-5-yl]-2-(trideuteriomethyl)propanamide] | 11 | 
Cc1nnn(C(c2ccccc2)C2CCN(C(=O)c3cc(-c4nc5cc(-c6cnsc6)ccc5o4)ccn3)CC2)n1 (racemic) [Compound 140, (R/S)-(4-(5-(isothiazol-4-yl)benzo[d]oxazol-2-yl)pyridin-2-yl)(4-((5-methyl-2H-tetrazol-2-yl)(phenyl)methyl)piperidin-1-yl)methanone] | 4 | 
CC(C)(F)C(=O)Nc1ccc2oc(-c3ccnc(C(=O)N4CCN(C(c5ccccc5)c5nnn(C(F)F)n5)CC4)c3)cc2c1 (racemic) [Compound 141, (R/S)—N-(2-(2-(4-((2-(difluoromethyl)-2H-tetrazol-5-yl)(phenyl)methyl)piperazine-1-carbonyl)pyridin-4-yl)benzofuran-5-yl)-2-fluoro-2-methylpropanamide] | 16 | 
Cc1nnn(C(c2ccccc2)C2CCN(C(=O)c3cc(-c4cc5cc(NC(=O)C(C)(C)F)ccc5o4)ccn3)CC2)n1 (racemic) [Compound 142, (R/S)-2-fluoro-2-methyl-N-(2-(2-(4-((5-methyl-2H-tetrazol-2-yl)(phenyl)methyl)piperidine-1-carbonyl)pyridin-4-yl)benzofuran-5-yl)propanamide] | 23 | 
O=C(c1cc(-c2cc3cc(NC(=O)C4(F)CC4)ccc3o2)ccn1)N1CCN(C(c2ccccc2)c2nnn(C(F)F)n2)CC1 (racemic) [Compound 143, (R/S)—N-(2-(2-(4-((2-(difluoromethyl)-2H-tetrazol-5-yl)(phenyl)methyl)piperazine-1-carbonyl)pyridin-4-yl)benzofuran-5-yl)-1-fluorocyclopropane-1-carboxamide] | 13 | 
Cc1nnn(C(c2ccccc2)C2CCN(C(=O)c3cc(-c4cc5cc(NC(=O)C6(F)CC6)ccc5o4)ccn3)CC2)n1 (racemic) [Compound 144] | 7 | 
CC(C)n1cc(-c2ccc3oc(-c4ccnc(C(=O)N5CCN(C(c6ccccc6)c6nnn(C(F)F)n6)CC5)c4)nc3c2)cn1 (racemic) [Compound 146, (R/S)-(4-((2-(difluoromethyl)-2H-tetrazol-5-yl)(phenyl)methyl)piperazin-1-yl)(4-(5-(1-isopropyl-1H-pyrazol-4-yl)benzo[d]oxazol-2-yl)pyridin-2-yl)methanone] | 26 | 
Cn1cnc(-c2ccc3oc(-c4ccnc(C(=O)N5CCN(C(c6ccccc6)c6nnn(C(F)F)n6)CC5)c4)nc3c2)c1 (racemic) [Compound 147, (R/S)-(4-((2-(difluoromethyl)-2H-tetrazol-5-yl)(phenyl)methyl)piperazin-1-yl)(4-(5-(1-methyl-1H-imidazol-4-yl)benzo[d]oxazol-2-yl)pyridin-2-yl)methanone] | 14 | 
O=C(c1cc(-c2nc3cc(-c4cnn(C5CC5)c4)ccc3o2)ccn1)N1CCN(C(c2ccccc2)c2nnn(C(F)F)n2)CC1 (racemic) [Compound 148, (R/S)-(4-(5-(1-cyclopropyl-1H-pyrazol-4-yl)benzo[d]oxazol-2-yl)pyridin-2-yl)(4-((2-(difluoromethyl)-2H-tetrazol-5-yl)(phenyl)methyl)piperazin-1-yl)methanone] | 33 | 
O=C(Nc1ccc2oc(-c3ccnc(C(=O)N4CCN(C(c5ccccc5)c5nnn(CF)n5)CC4)c3)nc2c1)[C@@H]1C[C@@H]1F (mixture of isomers) [Compound 150, (1S,2S)-2-fluoro-N-(2-(2-(4-((S/R)-(2-(fluoromethyl)-2H-tetrazol-5-yl)(phenyl)methyl)piperazine-1-carbonyl)pyridin-4-yl)benzo[d]oxazol-5-yl)cyclopropane-1-carboxamide] | 8 | 
O=C(c1cc(-c2nc3cc(-c4cnn(C5COC5)c4)ccc3o2)ccn1)N1CCN(C(c2ccccc2)c2nnn(C(F)F)n2)CC1 (racemic) [Compound 151, (R/S)-(4-((2-(difluoromethyl)-2H-tetrazol-5-yl)(phenyl)methyl)piperazin-1-yl)(4-(5-(1-(oxetan-3-yl)-1H-pyrazol-4-yl)benzo[d]oxazol-2-yl)pyridin-2-yl)methanone] | 38 | 
Cn1nccc1-c1ccc2oc(-c3ccnc(C(=O)N4CCN(C(c5ccccc5)c5nnn(C(F)F)n5)CC4)c3)nc2c1 (racemic) [Compound 152, (R/S)-(4-((2-(difluoromethyl)-2H-tetrazol-5-yl)(phenyl)methyl)piperazin-1-yl)(4-(5-(1-methyl-1H-pyrazol-5-yl)benzo[d]oxazol-2-yl)pyridin-2-yl)methanone] | 5 | 
Cn1ccc(-c2ccc3oc(-c4ccnc(C(=O)N5CCN(C(c6ccccc6)c6nnn(C(F)F)n6)CC5)c4)nc3c2)n1 (racemic) [Compound 153, (R/S)-(4-((2-(difluoromethyl)-2H-tetrazol-5-yl)(phenyl)methyl)piperazin-1-yl)(4-(5-(1-methyl-1H-pyrazol-3-yl)benzo[d]oxazol-2-yl)pyridin-2-yl)methanone] | 7 | 
Cc1c(-c2ccc3oc(-c4ccnc(C(=O)N5CCN(C(c6ccccc6)c6nnn(C(F)F)n6)CC5)c4)nc3c2)cnn1C (racemic) [Compound 154, (R/S)-(4-((2-(difluoromethyl)-2H-tetrazol-5-yl)(phenyl)methyl)piperazin-1-yl)(4-(5-(1,5-dimethyl-1H-pyrazol-4-yl)benzo[d]oxazol-2-yl)pyridin-2-yl)methanone] | 5 | 
Cc1n[nH]cc1-c1ccc2oc(-c3ccnc(C(=O)N4CCN(C(c5ccccc5)c5nnn(C(F)F)n5)CC4)c3)nc2c1 (racemic) [Compound 155, (R/S)-(4-((2-(difluoromethyl)-2H-tetrazol-5-yl)(phenyl)methyl)piperazin-1-yl)(4-(5-(3-methyl-1H-pyrazol-4-yl)benzo[d]oxazol-2-yl)pyridin-2-yl)methanone] | 1 | 
Cc1n[nH]c(C)c1-c1ccc2oc(-c3ccnc(C(=O)N4CCN(C(c5ccccc5)c5nnn(C(F)F)n5)CC4)c3)nc2c1 (racemic) [Compound 156, (R/S)-(4-((2-(difluoromethyl)-2H-tetrazol-5-yl)(phenyl)methyl)piperazin-1-yl)(4-(5-(3,5-dimethyl-1H-pyrazol-4-yl)benzo[d]oxazol-2-yl)pyridin-2-yl)methanone] | 7 | 
Cc1cn(-c2ccc3oc(-c4ccnc(C(=O)N5CCN(C(c6ccccc6)c6nnn(C(F)F)n6)CC5)c4)nc3c2)cn1 (racemic) [Compound 158, (R/S)-(4-((2-(difluoromethyl)-2H-tetrazol-5-yl)(phenyl)methyl)piperazin-1-yl)(4-(5-(4-methyl-1H-imidazol-1-yl)benzo[d]oxazol-2-yl)pyridin-2-yl)methanone] | 3 | 
Cn1cncc1-c1ccc2nc(-c3ccnc(C(=O)N4CCN(C(c5ccccc5)c5nnn(C(F)F)n5)CC4)c3)oc2c1 (racemic) [Compound 160, (R/S)-(4-((2-(difluoromethyl)-2H-tetrazol-5-yl)(phenyl)-13-methyl)piperazin-1-yl)(4-(6-(1-methyl-1H-imidazol-5-yl)benzo[d]oxazol-2-yl)pyridin-2-yl)methanone] |  | 18
O=C(c1cc(-c2nc3cc(-c4cnn(C(F)(F)F)c4)ccc3o2)ccn1)N1CCN(C(c2ccccc2)c2nnn(C(F)F)n2)CC1 (racemic) [Compound 161, (R/S)-(4-((2-(difluoromethyl)-2H-tetrazol-5-yl)(phenyl)methyl)piperazin-1-yl)(4-(5-(1-(trifluoromethyl)-1H-pyrazol-4-yl)benzo[d]oxazol-2-yl)pyridin-2-yl)methanone] | 20 | 
Cc1ncc(-c2ccc3oc(-c4ccnc(C(=O)N5CCN(C(c6ccccc6)c6nnn(C(F)F)n6)CC5)c4)nc3c2)n1C (racemic) [Compound 162, (R/S)-(4-((2-(difluoromethyl)-2H-tetrazol-5-yl)(phenyl)methyl)piperazin-1-yl)(4-(5-(1,2-dimethyl-1H-imidazol-5-yl)benzo[d]oxazol-2-yl)pyridin-2-yl)methanone] | 3 | 
[2H]C([2H])([2H])C(C(=O)Nc1ccc2oc(-c3ccnc(C(=O)N4CCC(C(c5ccccc5)n5nnc(C(F)F)n5)CC4)c3)nc2c1)C([2H])([2H])[2H] (racemic) [Compound 163, 3,3,3-tideuterio-N-[2-[2-[4-[(R/S)-[5-(difluoromethyl)tetrazol-2-yl]-phenyl-methyl]piperidine-1-carbonyl]-4-pyridyl]-1,3-benzoxazol-5-yl]-2-(trideuteriomethyl)propanamide] | 8 | 
